Assay results from patent US11673897B2, “Compounds for the treatment of kinase-dependent disorders” (Exelixis, Inc., priority 2018, dated 2023).

Legend:
Human Axl = Human Axl (Homo sapiens (Human), UniProt P30530, Q764R); assay: Human AXL kinase assay (33P radiometric, KinaseProfiler); assay type: biochemical; conditions: 10 μM ATP
Protocol: (§1) Kinase activity and compound inhibition were investigated using the ^33P-Phosphoryl transfer radiometric kinase assay, performed using the KinaseProfiler™ service of Eurofins Pharma Discovery Services UK Limited. Dose-response experiments were performed using nine compound concentrations in a 96-well microtiter plate. For each assay, all compounds were prepared to a 50× final assay concentration (50 μM) in 100% DMSO, then diluted in a half-log series, with the final top concentration at 1 μM. This working stock of the compound was added to the assay well as the first component in the reaction, followed by the remaining components as detailed in the following assay protocols below. The positive control wells (100% kinase activity) contain all components of the reaction including 2% DMSO (control for solvent effects), except the compound of interest. Blank wells contain all components of the reaction, with the reference inhibitor, staurosporine. This reference compound was used to abolish kinase activity and generated the 0% kinase activity base-line. IC50 values were calculated by nonlinear regression analysis using the sigmoidal dose-response (variable slope) curve fit on XLFit version 5.3 (ID Business Solutions).
Human Axl (residues H473-A894 with Q764R, 161 nM) was incubated with 8 mM MOPS pH 7.0, 0.2 mM EDTA, 250 μM KKSRGDYMTMQIG (SEQ ID NO. 43), 10 mM magnesium acetate and 10 μM [γ-33P-ATP]. The reaction was initiated by the addition of the Mg/ATP mix. After incubation for 40 minutes at room temperature, the reaction was stopped by the addition of phosphoric acid to a concentration of 0.5%. A reaction aliquot of 10 μL was then spotted onto a P30 filtermat and washed four times for 4 minutes in 0.425% phosphoric acid and once in methanol prior to drying and scintillation counting. Incorporated ^33P was measured using the Wallac Microbeta scintillation counter (Perkin Elmer).

Mer [1] = target: T1, Mer (Homo sapiens (Human), UniProt Q12866); assay: Human Mer kinase assay (33P radiometric, KinaseProfiler); assay type: biochemical; conditions: 10 μM ATP
Protocol: as §1
Human Mer (residues R557-E882 with H628Q and R794A, 0.7 nM) was incubated with 8 mM MOPS pH 7.0, 0.2 mM EDTA, 30 mM NaCl, 250 μM GGMEDIYFEFMGGKKK (SEQ ID NO. 44), 10 mM magnesium acetate, and 10 μM [γ-^33P-ATP]. The reaction was initiated by the addition of the Mg/ATP mix. After incubation for 40 minutes at room temperature, the reaction was stopped by the addition of phosphoric acid to a concentration of 0.5%. A reaction aliquot of 10 μL was then spotted onto a P30 filtermat and washed four times for 4 minutes in 0.425% phosphoric acid and once in methanol prior to drying and scintillation counting. Incorporated ^33P was measured using the Wallac Microbeta scintillation counter (Perkin Elmer).

Met [2] = target: T2, Met (Homo sapiens (Human), UniProt P08581); assay: Human Met kinase assay (33P radiometric, KinaseProfiler); assay type: biochemical; conditions: 10 μM ATP, read-out: c-Met IC50
Protocol: as §1
Human Met (residues R974-S1390 with A1209G and V1290L, 3.4 nM) was incubated with 8 mM MOPS pH 7.0, 0.2 mM EDTA, 250 μM KKKGQEEEYVFIE (SEQ ID NO. 45), 1 mM sodium orthovanadate, 5 mM […], 10 mM magnesium acetate, and 10 μM [γ-33P-ATP]. The reaction was initiated by the addition of the Mg/ATP mix. After incubation for 40 minutes at room temperature, the reaction was stopped by the addition of phosphoric acid to a concentration of 0.5%. A reaction aliquot of 10 μL was then spotted onto a P30 filtermat and washed four times for 4 minutes in 0.425% phosphoric acid and once in methanol prior to drying and scintillation counting. Incorporated 33P was measured using the Wallac Microbeta scintillation counter (Perkin Elmer).

KDR = KDR (Homo sapiens (Human), UniProt P35968); assay: KDR autophosphorylation ELISA in HUVEC cells; assay type: cell-based; conditions: cellular, VEGF165-stimulated, phospho-KDR ELISA
Sequence of KDR (P35968 20-1356): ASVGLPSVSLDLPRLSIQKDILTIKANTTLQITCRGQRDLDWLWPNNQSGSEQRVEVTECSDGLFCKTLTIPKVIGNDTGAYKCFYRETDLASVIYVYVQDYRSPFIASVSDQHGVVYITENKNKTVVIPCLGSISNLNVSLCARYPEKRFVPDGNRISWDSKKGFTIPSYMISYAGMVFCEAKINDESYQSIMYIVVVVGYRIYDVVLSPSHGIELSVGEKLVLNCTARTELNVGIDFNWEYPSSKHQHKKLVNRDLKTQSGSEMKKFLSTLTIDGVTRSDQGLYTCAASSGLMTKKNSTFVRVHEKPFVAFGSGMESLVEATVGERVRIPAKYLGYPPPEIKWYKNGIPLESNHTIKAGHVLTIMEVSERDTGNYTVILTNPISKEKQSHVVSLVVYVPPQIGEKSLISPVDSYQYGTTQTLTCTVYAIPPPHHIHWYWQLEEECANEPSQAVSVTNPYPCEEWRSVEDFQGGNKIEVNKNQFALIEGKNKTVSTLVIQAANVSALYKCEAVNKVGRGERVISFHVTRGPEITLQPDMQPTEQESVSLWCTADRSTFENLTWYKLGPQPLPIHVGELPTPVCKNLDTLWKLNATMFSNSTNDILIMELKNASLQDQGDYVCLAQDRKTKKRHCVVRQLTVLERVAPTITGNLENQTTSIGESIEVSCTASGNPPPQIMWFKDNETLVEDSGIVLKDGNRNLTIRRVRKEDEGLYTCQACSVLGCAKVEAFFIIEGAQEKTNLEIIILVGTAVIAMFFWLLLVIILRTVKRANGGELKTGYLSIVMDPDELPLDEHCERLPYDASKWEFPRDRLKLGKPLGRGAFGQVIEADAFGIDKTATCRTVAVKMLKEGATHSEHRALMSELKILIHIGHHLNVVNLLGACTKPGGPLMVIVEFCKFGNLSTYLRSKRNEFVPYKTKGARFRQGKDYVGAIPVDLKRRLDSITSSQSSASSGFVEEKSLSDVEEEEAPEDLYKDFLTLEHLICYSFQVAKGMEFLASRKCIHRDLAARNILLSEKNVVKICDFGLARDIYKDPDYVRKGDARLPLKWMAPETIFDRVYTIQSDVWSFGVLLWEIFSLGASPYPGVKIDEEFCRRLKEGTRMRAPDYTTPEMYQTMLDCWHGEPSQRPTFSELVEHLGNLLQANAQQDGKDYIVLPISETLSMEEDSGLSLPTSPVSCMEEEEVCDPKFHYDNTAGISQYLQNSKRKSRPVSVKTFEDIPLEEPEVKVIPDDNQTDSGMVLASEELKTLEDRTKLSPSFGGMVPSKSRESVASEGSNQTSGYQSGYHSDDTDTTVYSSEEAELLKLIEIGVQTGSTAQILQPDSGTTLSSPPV
Outline: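 Inhibition of VEGF165-induced KDR phosphorylation was determined in serum-starved HUVEC after 1 h compound pretreatment and 5 min stimulation with 100 ng/mL VEGF165. Lysate phospho-KDR was measured by ELISA; IC50 values came from a 4-parameter logistic fit of 8-point curves.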

Mer [3] = target: T1, Mer; assay: Mer autophosphorylation ELISA in transient transfected 293A cells; assay type: cell-based; conditions: cellular, MERTK-transfected 293A cells, phospho-Mer ELISA
Protocol: 293A cells (Thermo Fisher #R70507) were seeded at 1.5×10^6 cells/well onto 100 mm dish (Greiner #664169), in DMEM (Thermo Fisher #11995-040) containing 10% FBS (Thermo Fisher #26140-079), 1% MEM NEAA (Thermo Fisher #11140-050), 1% GlutaMax (Thermo Fisher #35050-061), and 1% Penicillin Streptomycin (Thermo Fisher #15140-122). 293A cells were incubated at 37° C., 5% CO2 for 24 h and then transfected with 6 μg MERTK DNA (Genecopoeia #EX-Z8208-M02) using TransIT LT1 transfection reagent (Mirus-Bio #MIR2305). After 24 h incubation, the transfected 293A cells were seeded at 1×10^5 cells/well onto 96-well plates (Corning #3904) in DMEM growth medium overnight. Test compounds were serially diluted to produce an 8-point dose curve in fresh serum-free medium to a final concentration of 0.3% DMSO (vehicle) and added to the cells and incubated for 1 h. Cells were then immediately lysed with 150 μL of cold 1× lysis buffer [20 mM Tris, 137 mM sodium chloride, 2 mM EDTA, 10% glycerol, 1% NP-40 alternative, 1 mM activated sodium orthovanadate, 1 mM PefaBloc SC (Sigma-Aldrich #11429868001), protease/phosphatase inhibitor tablet (Thermo Fisher #A32959)]. Lysates were clarified by centrifugation and 50 μL/well added into the human phospho-Mer DuoSet IC ELISA (R&D Systems #DYC2579-2). Assay was performed according to manufacturer's instructions and sample phospho-Mer concentrations were extrapolated using human phospho-Mer control (R&D Systems #841793) as a standard. Positive control wells (100% activity) contained DMSO-treated cell lysates. Negative control wells (0% activity) contained reference inhibitor-treated cell lysates. IC50 values were calculated by nonlinear regression analysis using a 4-parameter logistic curve fit in ActivityBase XE (IDBS).
Target sequence in this assay (Q12866 21-999): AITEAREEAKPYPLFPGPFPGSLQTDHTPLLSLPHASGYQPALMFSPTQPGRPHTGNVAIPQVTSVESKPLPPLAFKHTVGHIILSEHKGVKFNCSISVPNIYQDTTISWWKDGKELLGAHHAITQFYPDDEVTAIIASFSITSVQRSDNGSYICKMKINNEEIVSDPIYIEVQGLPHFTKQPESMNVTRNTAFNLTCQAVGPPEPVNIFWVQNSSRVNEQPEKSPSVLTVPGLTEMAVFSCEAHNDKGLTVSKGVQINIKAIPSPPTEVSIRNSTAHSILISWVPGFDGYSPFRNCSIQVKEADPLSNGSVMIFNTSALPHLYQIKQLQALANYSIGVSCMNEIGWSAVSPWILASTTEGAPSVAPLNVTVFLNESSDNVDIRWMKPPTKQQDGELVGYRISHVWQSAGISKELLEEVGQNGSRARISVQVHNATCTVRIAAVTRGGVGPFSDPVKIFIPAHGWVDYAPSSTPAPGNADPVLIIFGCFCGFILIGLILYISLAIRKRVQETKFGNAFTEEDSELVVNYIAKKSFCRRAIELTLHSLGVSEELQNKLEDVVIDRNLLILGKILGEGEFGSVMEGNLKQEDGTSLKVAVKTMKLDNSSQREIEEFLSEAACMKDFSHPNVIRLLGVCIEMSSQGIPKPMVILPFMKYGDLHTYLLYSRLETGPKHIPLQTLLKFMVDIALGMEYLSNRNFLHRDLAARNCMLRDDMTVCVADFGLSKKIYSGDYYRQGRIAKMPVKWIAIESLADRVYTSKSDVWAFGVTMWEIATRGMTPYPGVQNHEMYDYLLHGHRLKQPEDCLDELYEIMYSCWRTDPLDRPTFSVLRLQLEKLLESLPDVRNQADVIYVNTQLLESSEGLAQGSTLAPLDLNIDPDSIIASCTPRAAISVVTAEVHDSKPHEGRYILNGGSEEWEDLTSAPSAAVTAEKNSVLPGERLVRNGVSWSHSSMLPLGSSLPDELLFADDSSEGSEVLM

Met [4] = target: T2, Met; assay: Met autophosphorylation ELISA in PC-3 cells; assay type: cell-based; conditions: cellular, HGF-stimulated, phospho-Met ELISA, read-out: c-Met IC50
Outline: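 PC-3 cells serum-starved 3 h were treated 1 h with an 8-point compound series (0.3% DMSO), then stimulated 10 min with 100 ng/mL human HGF. Phospho-Met (panTyr) in lysates was measured by sandwich ELISA against DMSO (100%) and reference-inhibitor (0%) controls, and IC50 came from a 4-parameter logistic fit.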
Target sequence in this assay (P08581 25-1390): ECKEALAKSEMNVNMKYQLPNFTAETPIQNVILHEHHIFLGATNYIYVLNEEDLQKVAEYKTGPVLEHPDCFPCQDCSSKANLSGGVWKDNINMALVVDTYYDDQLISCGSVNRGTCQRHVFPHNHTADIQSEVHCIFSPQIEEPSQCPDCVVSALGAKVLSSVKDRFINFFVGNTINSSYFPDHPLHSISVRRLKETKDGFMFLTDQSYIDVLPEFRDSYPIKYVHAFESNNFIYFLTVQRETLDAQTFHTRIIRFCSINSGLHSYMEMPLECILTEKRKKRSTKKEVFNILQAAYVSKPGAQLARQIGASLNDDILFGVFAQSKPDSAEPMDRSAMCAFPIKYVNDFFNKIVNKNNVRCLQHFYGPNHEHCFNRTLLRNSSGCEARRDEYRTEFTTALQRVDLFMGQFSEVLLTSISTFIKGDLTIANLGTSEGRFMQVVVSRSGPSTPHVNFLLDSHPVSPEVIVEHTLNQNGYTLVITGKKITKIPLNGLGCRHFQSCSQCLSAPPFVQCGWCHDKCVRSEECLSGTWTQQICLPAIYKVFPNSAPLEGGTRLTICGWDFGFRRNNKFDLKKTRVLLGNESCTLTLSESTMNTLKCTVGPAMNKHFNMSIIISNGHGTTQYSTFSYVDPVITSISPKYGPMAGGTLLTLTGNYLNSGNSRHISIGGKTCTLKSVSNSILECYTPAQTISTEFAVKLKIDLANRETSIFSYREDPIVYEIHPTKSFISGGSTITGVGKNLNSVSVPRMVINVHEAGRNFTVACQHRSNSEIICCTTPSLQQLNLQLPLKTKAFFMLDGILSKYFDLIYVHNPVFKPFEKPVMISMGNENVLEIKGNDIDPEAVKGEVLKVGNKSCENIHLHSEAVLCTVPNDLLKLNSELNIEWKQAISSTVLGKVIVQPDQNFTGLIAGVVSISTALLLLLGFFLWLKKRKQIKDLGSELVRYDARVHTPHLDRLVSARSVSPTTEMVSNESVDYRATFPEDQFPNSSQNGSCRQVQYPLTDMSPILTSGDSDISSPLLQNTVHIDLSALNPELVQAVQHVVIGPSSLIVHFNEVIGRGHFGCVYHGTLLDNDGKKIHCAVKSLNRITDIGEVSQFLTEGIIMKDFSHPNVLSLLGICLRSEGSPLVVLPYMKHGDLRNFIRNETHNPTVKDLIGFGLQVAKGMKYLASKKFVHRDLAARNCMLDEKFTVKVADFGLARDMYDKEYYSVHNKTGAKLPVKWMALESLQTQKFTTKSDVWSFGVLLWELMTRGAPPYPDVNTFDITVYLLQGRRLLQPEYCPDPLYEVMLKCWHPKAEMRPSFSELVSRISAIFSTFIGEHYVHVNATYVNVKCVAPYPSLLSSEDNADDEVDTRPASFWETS

AXL = AXL (Homo sapiens (Human), UniProt P30530); assay: AXL autophosphorylation ELISA in A-172 cells; assay type: cell-based; conditions: cellular, Gas6-stimulated, phospho-AXL ELISA
Sequence of AXL (P30530 26-894): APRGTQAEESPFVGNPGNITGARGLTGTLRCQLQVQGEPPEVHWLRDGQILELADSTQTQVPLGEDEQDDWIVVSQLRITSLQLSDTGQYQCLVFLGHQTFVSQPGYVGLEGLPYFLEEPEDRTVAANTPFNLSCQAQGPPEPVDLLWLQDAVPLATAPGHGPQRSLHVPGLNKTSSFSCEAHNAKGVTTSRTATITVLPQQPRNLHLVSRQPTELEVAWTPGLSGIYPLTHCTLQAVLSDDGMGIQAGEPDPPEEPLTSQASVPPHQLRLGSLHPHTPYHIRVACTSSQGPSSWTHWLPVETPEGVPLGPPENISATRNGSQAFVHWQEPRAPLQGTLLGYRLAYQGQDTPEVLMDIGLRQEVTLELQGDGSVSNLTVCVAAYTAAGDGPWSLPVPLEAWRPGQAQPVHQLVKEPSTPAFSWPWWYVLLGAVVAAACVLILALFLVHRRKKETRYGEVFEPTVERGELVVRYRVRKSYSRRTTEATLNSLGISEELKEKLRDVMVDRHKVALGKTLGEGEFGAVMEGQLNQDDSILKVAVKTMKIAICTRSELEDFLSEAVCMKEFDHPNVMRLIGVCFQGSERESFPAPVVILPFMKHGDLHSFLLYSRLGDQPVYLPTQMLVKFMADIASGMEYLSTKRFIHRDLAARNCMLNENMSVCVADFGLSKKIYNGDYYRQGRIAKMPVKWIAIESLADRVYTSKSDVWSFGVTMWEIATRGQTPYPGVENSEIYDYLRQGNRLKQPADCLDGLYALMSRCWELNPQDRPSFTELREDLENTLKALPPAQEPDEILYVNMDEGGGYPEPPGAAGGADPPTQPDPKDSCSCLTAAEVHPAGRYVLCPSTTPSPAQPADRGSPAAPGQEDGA
Outline: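 A-172 glioblastoma cells, serum-starved 24 h, took compounds for 1 h (8-point curve, 0.3% DMSO) before 15 min stimulation with 1 μg/mL recombinant human Gas6. Lysate phospho-AXL measured by ELISA against a phospho-AXL standard, normalized to DMSO (100%) and reference inhibitor (0%); IC50 from 4-parameter logistic fit.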

Sequence of Human Axl (P30530 473-894 Q764R): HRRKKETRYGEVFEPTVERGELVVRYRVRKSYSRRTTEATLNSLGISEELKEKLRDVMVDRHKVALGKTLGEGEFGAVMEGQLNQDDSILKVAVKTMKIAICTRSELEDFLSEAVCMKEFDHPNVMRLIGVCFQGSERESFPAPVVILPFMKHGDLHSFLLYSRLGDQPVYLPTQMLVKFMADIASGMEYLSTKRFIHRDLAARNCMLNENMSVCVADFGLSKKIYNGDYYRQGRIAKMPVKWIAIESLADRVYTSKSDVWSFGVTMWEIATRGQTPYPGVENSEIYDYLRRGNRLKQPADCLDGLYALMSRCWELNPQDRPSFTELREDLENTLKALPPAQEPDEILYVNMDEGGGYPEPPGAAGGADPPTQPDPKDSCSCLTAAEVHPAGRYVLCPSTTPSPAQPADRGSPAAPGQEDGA

Row | Structure (SMILES) | IC50 (Human Axl) [µM] | IC50 (Mer [1]) [µM] | IC50 (Met [2]) [µM] | IC50 (KDR) [µM] | IC50 (Mer [3]) [µM] | IC50 (Met [4]) [µM] | IC50 (AXL) [µM]
1 | COc1cc2nccc(Oc3ccc(NC(=O)C4(C(=O)Nc5ccc(F)cc5)CC4)cn3)c2cc1C(=O)O [Compound 13, 4-[5-[[1-[(4-Fluorophenyl)carbamoyl]cyclopropanecarbonyl]-amino]pyridin-2-yl]oxy-7-methoxyquinoline-6-carboxylic acid] | 0.1 to 1 | 0.1 to 1 | 0.1 to 1 | – | – | – | –
2 | COc1cc2nccc(Oc3ccc(NC(=O)C4(C(=O)Nc5ccc(F)cc5)CC4)c(OC)n3)c2nc1OC [Compound 86, 1-N′-[6-[(6,7-Dimethoxy-1,5-naphthyridin-4-yl)oxy]-2-methoxypyridin-3-yl]-1-N-(4-fluorophenyl)cyclopropane-1,1-dicarboxamide] | – | – | – | > 0.3 | 0.01 to 0.1 | 0.1 to 0.3 | 0.01 to 0.1
3 | COc1cc2nccc(Oc3ccc(NC(=O)C4(C(=O)Nc5ccc(F)cc5)CC4)c(C)n3)c2nc1OC [Compound 87, 1-N′-[6-[(6,7-Dimethoxy-1,5-naphthyridin-4-yl)oxy]-2-methylpyridin-3-yl]-1-N-(4-fluorophenyl)cyclopropane-1,1-dicarboxamide] | – | – | – | > 0.3 | > 0.3 | > 0.3 | 0.01 to 0.1
4 | COc1cc2nccc(Oc3nc(F)c(NC(=O)C4(C(=O)Nc5ccc(F)cc5)CC4)cc3F)c2nc1OC [Compound 96, 1-N′-[6-[(6,7-Dimethoxy-1,5-naphthyridin-4-yl)oxy]-2,5-difluoropyridin-3-yl]-1-N-(4-fluorophenyl)cyclopropane-1,1-dicarboxamide] | – | – | – | > 0.3 | 0.01 to 0.1 | 0.01 to 0.1 | ≤ 0.01
5 | COCCOc1cc2nccc(Oc3ncc(NC(=O)C4(C(=O)Nc5ccc(F)cc5)CC4)cc3F)c2nc1OC [Compound 116, 1-N′-[5-Fluoro-6-[[6-methoxy-7-(2-methoxyethoxy)-1,5-naphthyridin-4-yl]oxy]pyridin-3-yl]-1-N-(4-fluorophenyl)cyclopropane-1,1-dicarboxamide] | – | – | – | > 0.3 | 0.01 to 0.1 | 0.1 to 0.3 | 0.01 to 0.1
6 | COc1ccc(COc2cc3nccc(Oc4ncc(NC(=O)C5(C(=O)Nc6ccc(F)cc6)CC5)cc4F)c3nc2OC)cc1 [Compound 120, 1-N′-[5-Fluoro-6-[[6-methoxy-7-[(4-methoxyphenyl)methoxy]-1,5-naphthyridin-4-yl]oxy]pyridin-3-yl]-1-N-(4-fluorophenyl)cyclopropane-1,1-dicarboxamide] | – | – | – | > 0.3 | > 0.3 | 0.1 to 0.3 | 0.1 to 0.3
7 | COc1nc2c(Oc3ncc(NC(=O)C4(C(=O)Nc5ccc(F)cc5)CC4)cc3F)ccnc2cc1OCCCN1CCOCC1 [Compound 122, 1-N′-[5-Fluoro-6-[[6-methoxy-7-(3-morpholin-4-ylpropoxy)-1,5-naphthyridin-4-yl]oxy]pyridin-3-yl]-1-N-(4-fluorophenyl)cyclopropane-1,1-dicarboxamide] | – | – | – | > 0.3 | 0.01 to 0.1 | 0.01 to 0.1 | 0.01 to 0.1
8 | COc1nc2c(Oc3ncc(NC(=O)C4(C(=O)Nc5ccc(F)cc5)CC4)cc3F)ccnc2cc1OCCN1CCOCC1 [Compound 123, 1-N′-[5-Fluoro-6-[[6-methoxy-7-(2-morpholin-4-ylethoxy)-1,5-naphthyridin-4-yl]oxy]pyridin-3-yl]-1-N-(4-fluorophenyl)cyclopropane-1,1-dicarboxamide] | – | – | – | > 0.3 | 0.01 to 0.1 | 0.01 to 0.1 | 0.01 to 0.1
9 | COc1nc2c(Oc3ncc(NC(=O)C4(C(=O)Nc5ccc(F)cc5)CC4)cc3F)ccnc2cc1OCC(N)=O [Compound 124, 1-N′-[6-[[7-(2-Amino-2-oxoethoxy)-6-methoxy-1,5-naphthyridin-4-yl]oxy]-5-fluoropyridin-3-yl]-1-N-(4-fluorophenyl)cyclopropane-1,1-dicarboxamide] | – | – | – | > 0.3 | 0.1 to 0.3 | 0.1 to 0.3 | 0.1 to 0.3
10 | COc1nc2c(Oc3ncc(NC(=O)C4(C(=O)Nc5ccc(F)cc5)CC4)cc3F)ccnc2cc1OCCCN(C)C [Compound 125, 1-N′-[6-[[7-[3-(Dimethylamino)propoxy]-6-methoxy-1,5-naphthyridin-4-yl]oxy]-5-fluoropyridin-3-yl]-1-N-(4-fluorophenyl)cyclopropane-1,1-dicarboxamide] | – | – | – | > 0.3 | 0.01 to 0.1 | 0.01 to 0.1 | 0.01 to 0.1
11 | COc1nc2c(Oc3ncc(NC(=O)C4(C(=O)Nc5ccc(F)cc5)CC4)cc3F)ccnc2cc1OCC(O)CO (centres unmarked) [Compound 127, 1-N′-[6-[[7-(2,3-Dihydroxypropoxy)-6-methoxy-1,5-naphthyridin-4-yl]oxy]-5-fluoropyridin-3-yl]-1-N-(4-fluorophenyl)cyclopropane-1,1-dicarboxamide] | – | – | – | > 0.3 | 0.1 to 0.3 | 0.01 to 0.1 | 0.01 to 0.1
12 | COc1nc2c(Oc3ccc(NC(=O)C4(C(=O)Nc5ccc(F)cc5)CC4)cn3)ncnc2cc1OCCCN1CCOCC1 [Compound 155, 1-N-(4-Fluorophenyl)-1-N′-[6-[6-methoxy-7-(3-morpholin-4-ylpropoxy)pyrido[3,2-d]pyrimidin-4-yl]oxypyridin-3-yl]cyclopropane-1,1-dicarboxamide] | – | – | – | > 0.3 | 0.1 to 0.3 | 0.1 to 0.3 | 0.01 to 0.1
